Measurements as given in ChEMBL document CHEMBL1141870, “Discovery of potent chromen-4-one inhibitors of the DNA-dependent protein kinase (DNA-PK) using a small-molecule library approach” (J Med Chem, 2005).

Biological target: DNA-dependent protein kinase catalytic subunit (Homo sapiens, UniProt P78527)
Test: Inhibition against DNA-dependent protein kinase receptor at 0.5uM

Chain of DNA-dependent protein kinase catalytic subunit (P78527 whole entry): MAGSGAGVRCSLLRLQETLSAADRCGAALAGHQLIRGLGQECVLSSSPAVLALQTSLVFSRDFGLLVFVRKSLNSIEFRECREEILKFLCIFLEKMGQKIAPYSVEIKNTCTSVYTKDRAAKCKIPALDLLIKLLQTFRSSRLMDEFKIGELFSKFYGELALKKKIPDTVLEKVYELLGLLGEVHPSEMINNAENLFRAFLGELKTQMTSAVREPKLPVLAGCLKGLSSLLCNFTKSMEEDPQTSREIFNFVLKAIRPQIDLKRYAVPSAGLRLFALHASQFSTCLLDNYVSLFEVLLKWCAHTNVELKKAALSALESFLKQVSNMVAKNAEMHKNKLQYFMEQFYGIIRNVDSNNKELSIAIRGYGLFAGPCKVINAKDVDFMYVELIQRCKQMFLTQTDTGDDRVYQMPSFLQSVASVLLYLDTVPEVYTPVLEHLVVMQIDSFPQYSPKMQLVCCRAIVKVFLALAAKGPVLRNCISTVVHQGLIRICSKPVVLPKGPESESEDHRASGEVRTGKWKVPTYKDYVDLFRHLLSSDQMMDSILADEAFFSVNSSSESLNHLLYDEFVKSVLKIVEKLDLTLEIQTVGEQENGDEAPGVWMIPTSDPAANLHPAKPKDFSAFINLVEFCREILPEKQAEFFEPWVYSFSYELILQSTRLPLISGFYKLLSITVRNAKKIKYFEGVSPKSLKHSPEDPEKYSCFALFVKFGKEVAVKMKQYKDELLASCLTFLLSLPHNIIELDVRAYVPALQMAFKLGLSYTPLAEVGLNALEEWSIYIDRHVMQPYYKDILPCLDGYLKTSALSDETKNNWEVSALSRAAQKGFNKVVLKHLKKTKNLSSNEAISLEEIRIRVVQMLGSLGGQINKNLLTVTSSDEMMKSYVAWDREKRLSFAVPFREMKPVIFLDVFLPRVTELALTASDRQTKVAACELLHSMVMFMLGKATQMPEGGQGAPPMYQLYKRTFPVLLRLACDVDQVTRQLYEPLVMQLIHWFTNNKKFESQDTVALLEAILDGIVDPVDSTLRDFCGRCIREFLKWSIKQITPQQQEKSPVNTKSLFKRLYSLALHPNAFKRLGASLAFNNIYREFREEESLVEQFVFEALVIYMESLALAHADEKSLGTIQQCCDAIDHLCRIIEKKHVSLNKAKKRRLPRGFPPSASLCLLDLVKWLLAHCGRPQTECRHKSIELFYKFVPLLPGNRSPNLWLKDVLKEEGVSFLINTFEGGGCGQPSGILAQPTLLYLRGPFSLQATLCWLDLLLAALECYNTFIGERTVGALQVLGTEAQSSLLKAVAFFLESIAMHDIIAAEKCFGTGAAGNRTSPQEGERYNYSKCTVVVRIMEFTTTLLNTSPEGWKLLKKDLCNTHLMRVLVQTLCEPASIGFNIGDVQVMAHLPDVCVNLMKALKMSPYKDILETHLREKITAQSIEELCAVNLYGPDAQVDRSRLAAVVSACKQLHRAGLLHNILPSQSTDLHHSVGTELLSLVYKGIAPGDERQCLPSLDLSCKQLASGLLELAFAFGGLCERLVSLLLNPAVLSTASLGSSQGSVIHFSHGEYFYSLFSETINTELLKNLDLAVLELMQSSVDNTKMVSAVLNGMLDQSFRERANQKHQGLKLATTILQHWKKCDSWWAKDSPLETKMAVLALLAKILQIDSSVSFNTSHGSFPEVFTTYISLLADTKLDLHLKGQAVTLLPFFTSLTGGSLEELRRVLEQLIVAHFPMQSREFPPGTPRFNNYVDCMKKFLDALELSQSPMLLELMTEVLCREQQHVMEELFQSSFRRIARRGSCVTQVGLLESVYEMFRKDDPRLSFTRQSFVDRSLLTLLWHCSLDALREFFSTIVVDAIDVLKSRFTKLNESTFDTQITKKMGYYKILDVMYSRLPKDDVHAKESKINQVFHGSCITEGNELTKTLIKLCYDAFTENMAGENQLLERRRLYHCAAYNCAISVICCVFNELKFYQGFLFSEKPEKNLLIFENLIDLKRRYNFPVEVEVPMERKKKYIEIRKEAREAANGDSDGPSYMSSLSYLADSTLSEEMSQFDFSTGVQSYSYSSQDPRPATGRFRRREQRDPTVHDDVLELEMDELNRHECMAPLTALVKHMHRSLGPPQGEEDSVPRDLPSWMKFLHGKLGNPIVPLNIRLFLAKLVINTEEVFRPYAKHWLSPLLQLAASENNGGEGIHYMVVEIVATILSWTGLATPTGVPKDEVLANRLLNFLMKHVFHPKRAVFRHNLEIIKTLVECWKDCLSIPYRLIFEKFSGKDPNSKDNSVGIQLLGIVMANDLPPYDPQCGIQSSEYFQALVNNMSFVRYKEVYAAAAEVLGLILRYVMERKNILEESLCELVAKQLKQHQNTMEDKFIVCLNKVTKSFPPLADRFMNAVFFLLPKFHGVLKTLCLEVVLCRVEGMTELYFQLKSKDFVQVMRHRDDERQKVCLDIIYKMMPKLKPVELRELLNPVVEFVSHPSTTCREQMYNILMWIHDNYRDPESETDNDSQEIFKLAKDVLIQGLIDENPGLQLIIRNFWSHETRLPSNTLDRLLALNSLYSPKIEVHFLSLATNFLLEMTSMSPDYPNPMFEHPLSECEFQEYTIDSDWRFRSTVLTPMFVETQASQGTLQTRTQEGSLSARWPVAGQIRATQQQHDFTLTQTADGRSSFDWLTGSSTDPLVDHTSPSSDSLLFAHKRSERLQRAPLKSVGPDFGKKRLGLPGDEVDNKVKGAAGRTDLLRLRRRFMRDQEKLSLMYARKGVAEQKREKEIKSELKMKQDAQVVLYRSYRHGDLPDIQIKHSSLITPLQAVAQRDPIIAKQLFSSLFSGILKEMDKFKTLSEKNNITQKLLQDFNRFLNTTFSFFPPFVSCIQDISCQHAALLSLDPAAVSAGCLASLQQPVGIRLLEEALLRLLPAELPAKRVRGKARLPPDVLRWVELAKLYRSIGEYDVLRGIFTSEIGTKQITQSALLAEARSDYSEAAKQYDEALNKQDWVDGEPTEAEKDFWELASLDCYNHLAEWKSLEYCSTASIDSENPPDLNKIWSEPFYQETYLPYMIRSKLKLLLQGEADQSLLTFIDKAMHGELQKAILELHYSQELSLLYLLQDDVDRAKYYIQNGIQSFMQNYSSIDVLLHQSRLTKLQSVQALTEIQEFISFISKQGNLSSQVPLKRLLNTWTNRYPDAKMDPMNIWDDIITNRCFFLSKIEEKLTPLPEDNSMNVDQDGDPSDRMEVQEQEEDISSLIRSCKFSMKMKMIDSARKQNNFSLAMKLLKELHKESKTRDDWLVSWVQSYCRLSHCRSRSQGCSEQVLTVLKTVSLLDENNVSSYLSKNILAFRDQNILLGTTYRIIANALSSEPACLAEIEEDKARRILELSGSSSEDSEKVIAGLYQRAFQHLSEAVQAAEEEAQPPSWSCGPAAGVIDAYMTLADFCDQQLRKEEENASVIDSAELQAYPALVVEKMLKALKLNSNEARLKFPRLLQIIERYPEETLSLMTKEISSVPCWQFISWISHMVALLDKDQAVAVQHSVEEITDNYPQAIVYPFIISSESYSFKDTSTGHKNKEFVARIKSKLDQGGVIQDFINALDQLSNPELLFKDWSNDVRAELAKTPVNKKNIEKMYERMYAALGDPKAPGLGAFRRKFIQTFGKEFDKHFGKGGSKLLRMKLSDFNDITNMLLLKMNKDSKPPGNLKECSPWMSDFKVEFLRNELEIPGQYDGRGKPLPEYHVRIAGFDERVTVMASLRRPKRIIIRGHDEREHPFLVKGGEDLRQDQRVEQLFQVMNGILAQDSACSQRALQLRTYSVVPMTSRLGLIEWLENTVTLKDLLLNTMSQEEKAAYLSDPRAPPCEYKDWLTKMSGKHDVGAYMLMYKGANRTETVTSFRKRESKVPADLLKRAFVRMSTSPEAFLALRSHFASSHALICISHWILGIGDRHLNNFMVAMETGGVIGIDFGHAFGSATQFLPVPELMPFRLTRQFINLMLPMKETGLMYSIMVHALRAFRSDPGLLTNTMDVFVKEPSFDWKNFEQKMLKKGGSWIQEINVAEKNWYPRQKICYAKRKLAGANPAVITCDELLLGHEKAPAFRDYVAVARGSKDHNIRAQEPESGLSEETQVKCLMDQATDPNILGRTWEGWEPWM

inhibition [%] | Structure (SMILES)
4 | O=c1cc(N2CCOCC2)oc2ccc(-c3ccc4ccccc4c3)cc12
34 | COC(=O)/C=C/c1cccc(-c2ccc3c(=O)cc(N4CCOCC4)oc3c2)c1
13 | CCOC(=O)c1cccc(-c2ccc3oc(N4CCOCC4)cc(=O)c3c2)c1
30 | COC(=O)c1ccccc1-c1ccc2oc(N3CCOCC3)cc(=O)c2c1
61 | CC(=O)c1ccccc1-c1ccc2oc(N3CCOCC3)cc(=O)c2c1
52 | O=c1cc(N2CCOCC2)oc2ccc(-c3cccc4ccccc34)cc12
76 | COC(=O)/C=C/c1cccc(-c2ccc3oc(N4CCOCC4)cc(=O)c3c2)c1
31 | Nc1ccc(-c2ccc3c(=O)cc(N4CCOCC4)oc3c2)cc1
37 | CC(=O)Nc1cccc(-c2ccc3oc(N4CCOCC4)cc(=O)c3c2)c1
26 | CCOC(=O)c1cccc(-c2ccc3c(=O)cc(N4CCOCC4)oc3c2)c1
20 | CC(C)(C)c1ccccc1-c1ccc2c(=O)cc(N3CCOCC3)oc2c1
46 | CC(=O)c1cccc(-c2ccc3oc(N4CCOCC4)cc(=O)c3c2)c1
19 | O=c1cc(N2CCOCC2)oc2ccc(-c3ccc(OC(F)(F)F)cc3)cc12
42 | O=c1cc(N2CCOCC2)oc2ccc(-c3ccsc3)cc12
6 | O=c1cc(N2CCOCC2)oc2ccc(-c3ccc(Cl)cc3)cc12
48 | O=c1cc(N2CCOCC2)oc2ccc(-c3ccccc3CO)cc12
47 | O=c1cc(N2CCOCC2)oc2ccc(-c3cccc(OC(F)(F)F)c3)cc12
39 | O=c1cc(N2CCOCC2)oc2cc(-c3ccc(OC(F)(F)F)cc3)ccc12
21 | CC(=O)Nc1ccccc1-c1ccc2c(=O)cc(N3CCOCC3)oc2c1
49 | O=C1c2ccccc2C(=O)N1Cc1ccc(-c2ccc3oc(N4CCOCC4)cc(=O)c3c2)cc1
57 | COc1ccc(-c2ccc3oc(N4CCOCC4)cc(=O)c3c2)cc1
6 | O=c1cc(N2CCOCC2)oc2ccc(/C=C/c3ccccc3)cc12
4 | O=c1cc(N2CCOCC2)oc2cc(-c3ccc(Cl)cc3)ccc12
20 | CC(=O)Nc1ccc(-c2ccc3c(=O)cc(N4CCOCC4)oc3c2)cc1
22 | O=c1cc(N2CCOCC2)oc2cc(-c3ccc(O)cc3)ccc12
57 | O=c1cc(N2CCOCC2)oc2ccc(/C=C/c3ccc(F)cc3)cc12
